Conditions: in water

A solubility (mole fraction) (280.15 K) of 0.18, a solubility (mole fraction) (283.15 K) of 0.214 and a solubility (mole fraction) (287.65 K) of 0.278 were found for `CC(=O)CCC(=O)O` in this work. It also gave a solubility (mole fraction) (293.95 K) of 0.374, a solubility (mole fraction) (298.15 K) of 0.448 and a solubility (mole fraction) (303.25 K) of 0.519.
A solubility (mole fraction) (280.15 K) of 5.94e-05, a solubility (mole fraction) (285.85 K) of 8.13e-05 and a solubility (mole fraction) (291.85 K) of 0.000117 were found for `O=C(O)CCCCCCCC(=O)O` in this work. The solubility (mole fraction) (298.15 K) was 0.000171, the solubility (mole fraction) (307.85 K) was 0.000287 and the solubility (mole fraction) (316.15 K) was 0.000336. For the same molecule, the solubility (mole fraction) (325.75 K) was 0.000481, the solubility (mole fraction) (330.15 K) was 0.0007 and the solubility (mole fraction) (334.65 K) was 0.000931. For the same molecule, the solubility (mole fraction) (338.15 K) was 0.00128, the solubility (mole fraction) (344.15 K) was 0.00132 and the solubility (mole fraction) (347.65 K) was 0.00153. For the same molecule, the solubility (mole fraction) (353.05 K) was 0.00191 and the solubility (mole fraction) (357.65 K) was 0.00173.
A solubility (mole fraction) (280.15 K) of 9.55e-05, a solubility (mole fraction) (285.85 K) of 0.000128 and a solubility (mole fraction) (291.85 K) of 0.000177 were found for `O=C(O)CCCCCCC(=O)O` in this work. For the same molecule, the solubility (mole fraction) (298.15 K) was 0.00025, the solubility (mole fraction) (305.65 K) was 0.000341 and the solubility (mole fraction) (307.65 K) was 0.000369. For the same molecule, the solubility (mole fraction) (313.15 K) was 0.00042, the solubility (mole fraction) (317.65 K) was 0.000485 and the solubility (mole fraction) (323.35 K) was 0.000579. For the same molecule, the solubility (mole fraction) (325.85 K) was 0.00064, the solubility (mole fraction) (334.65 K) was 0.00101 and the solubility (mole fraction) (337.15 K) was 0.00117. For the same molecule, the solubility (mole fraction) (343.25 K) was 0.00149 and the solubility (mole fraction) (349.65 K) was 0.00212.
A solubility (mole fraction) (278.25 K) of 0.0365, a solubility (mole fraction) (284.15 K) of 0.0469 and a solubility (mole fraction) (288.75 K) of 0.0686 were found for `O=C(O)COCC(=O)O` in this work. It also gave a solubility (mole fraction) (293.75 K) of 0.0748, a solubility (mole fraction) (296.65 K) of 0.0823 and a solubility (mole fraction) (301.25 K) of 0.104. For the same molecule, the solubility (mole fraction) (310.65 K) was 0.128, the solubility (mole fraction) (313.15 K) was 0.139 and the solubility (mole fraction) (321.15 K) was 0.161. The solubility (mole fraction) (323.15 K) was 0.167, the solubility (mole fraction) (327.65 K) was 0.188 and the solubility (mole fraction) (332.65 K) was 0.205. The solubility (mole fraction) (338.15 K) was 0.22, the solubility (mole fraction) (343.15 K) was 0.239 and the solubility (mole fraction) (348.15 K) was 0.254. The solubility (mole fraction) (353.05 K) was 0.268, the solubility (mole fraction) (357.15 K) was 0.284 and the solubility (mole fraction) (361.35 K) was 0.295.

Reference: BigSolDB 2.1
